The values that follow come from paper PMC6627067, “Probing Multi-Target Action of Phlorotannins as New Monoamine Oxidase Inhibitors and Dopaminergic Receptor Modulators with the Potential for Treatment of Neuronal Disorders” (Marine Drugs, 2019).

“And” between values parts separate entries of the source, which are not always exact repeats. Equal values may be shown once. Read-outs that look alike come from different tables or passages of the source. Some results are limits rather than exact numbers.

Experiment [1] deals with hNK1 (TACR1) (Homo sapiens, UniProt P25103). Description: GPCR cell-based functional assay, intracellular Ca2+ level, NK1. The conditions noted are these: for % Stimulation of control agonist response, hNK1: agonist effect at 100 µM; for inhibition at 100 µM: antagonist effect at 100 µM, read-out: % Inhibition of control agonist response, hNK1.
Sequence of hNK1 (TACR1) (P25103 whole entry): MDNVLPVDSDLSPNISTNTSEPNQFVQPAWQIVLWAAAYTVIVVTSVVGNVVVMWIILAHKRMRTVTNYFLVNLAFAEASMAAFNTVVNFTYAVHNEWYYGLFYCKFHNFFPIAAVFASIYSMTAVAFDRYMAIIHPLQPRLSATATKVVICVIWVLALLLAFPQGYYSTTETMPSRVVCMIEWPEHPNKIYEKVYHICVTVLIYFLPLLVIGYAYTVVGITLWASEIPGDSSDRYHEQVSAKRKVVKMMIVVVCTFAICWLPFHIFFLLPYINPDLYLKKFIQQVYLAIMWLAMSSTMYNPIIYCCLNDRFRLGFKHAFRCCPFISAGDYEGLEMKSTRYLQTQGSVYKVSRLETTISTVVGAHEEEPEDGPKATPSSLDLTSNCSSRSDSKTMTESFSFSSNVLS
The target of experiment [2] is T1, hM5 (CHRM5) (Homo sapiens, UniProt P08912).
T1 sequence (P08912 1-532): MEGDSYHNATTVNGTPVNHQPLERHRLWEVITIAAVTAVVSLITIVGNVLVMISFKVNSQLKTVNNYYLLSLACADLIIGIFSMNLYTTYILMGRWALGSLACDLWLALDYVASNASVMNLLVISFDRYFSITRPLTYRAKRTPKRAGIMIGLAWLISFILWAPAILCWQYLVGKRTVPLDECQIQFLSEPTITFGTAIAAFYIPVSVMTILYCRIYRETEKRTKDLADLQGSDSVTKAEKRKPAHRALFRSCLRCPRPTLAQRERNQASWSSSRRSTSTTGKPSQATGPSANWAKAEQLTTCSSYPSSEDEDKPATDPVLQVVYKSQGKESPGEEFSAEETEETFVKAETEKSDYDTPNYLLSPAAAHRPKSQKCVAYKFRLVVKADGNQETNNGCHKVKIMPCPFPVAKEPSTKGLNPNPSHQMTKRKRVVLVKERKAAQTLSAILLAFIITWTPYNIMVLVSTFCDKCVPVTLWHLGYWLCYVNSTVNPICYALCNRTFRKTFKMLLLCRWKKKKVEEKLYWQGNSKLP
Kind of experiment: GPCR cell-based functional assay, intracellular Ca2+ level, M5. The conditions noted are these: for % Stimulation of control agonist response, hM5: agonist effect at 100 µM; for inhibition at 100 µM: antagonist effect at 100 µM, read-out: % Inhibition of control agonist response, hM5.

The target in experiment [3] is T2, hD1 (DRD1) (Homo sapiens, UniProt P21728). The conditions noted are these: agonist effect at 100 µM.
T2 sequence (P21728 whole entry): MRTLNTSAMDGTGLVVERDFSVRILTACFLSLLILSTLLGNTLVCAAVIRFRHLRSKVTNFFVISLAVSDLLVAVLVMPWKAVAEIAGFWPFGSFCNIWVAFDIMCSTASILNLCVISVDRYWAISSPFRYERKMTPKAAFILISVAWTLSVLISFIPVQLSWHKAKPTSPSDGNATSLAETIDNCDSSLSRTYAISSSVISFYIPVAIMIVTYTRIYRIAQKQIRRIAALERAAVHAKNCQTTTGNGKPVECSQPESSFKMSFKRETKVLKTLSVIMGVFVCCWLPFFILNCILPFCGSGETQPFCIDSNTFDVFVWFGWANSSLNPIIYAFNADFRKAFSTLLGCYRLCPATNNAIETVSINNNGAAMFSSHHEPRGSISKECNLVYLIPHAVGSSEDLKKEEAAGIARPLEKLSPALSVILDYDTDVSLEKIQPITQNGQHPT
In experiment [4] the target is T2, hD1 (DRD1). Description: cell-based. As to conditions: read-out: % Inhibition of control agonist response, hD1.
Experiment [5] deals with T3, h5-HT1A (HTR1A) (Homo sapiens, UniProt P08908).
T3 sequence (P08908 1-422): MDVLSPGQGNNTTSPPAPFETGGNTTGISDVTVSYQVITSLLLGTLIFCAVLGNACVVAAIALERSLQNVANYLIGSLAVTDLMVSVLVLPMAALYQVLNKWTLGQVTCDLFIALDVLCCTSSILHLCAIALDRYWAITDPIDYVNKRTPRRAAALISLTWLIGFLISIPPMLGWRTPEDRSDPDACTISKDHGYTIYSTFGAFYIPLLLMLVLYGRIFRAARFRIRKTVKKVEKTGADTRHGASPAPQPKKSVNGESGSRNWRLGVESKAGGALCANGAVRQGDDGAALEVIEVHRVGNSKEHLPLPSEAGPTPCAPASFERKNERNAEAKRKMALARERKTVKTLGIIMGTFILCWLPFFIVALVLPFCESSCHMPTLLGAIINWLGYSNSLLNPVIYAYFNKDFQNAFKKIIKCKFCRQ
Description: GPCR cell-based functional assay, intracellular Ca2+ level, 5-HT1A. As to conditions: for % Stimulation of control agonist response, h5-HT1A: agonist effect at 100 µM; for inhibition at 100 µM: antagonist effect at 100 µM, read-out: % Inhibition of control agonist response, h5-HT1A.

Experiment [6] concerns the target T4, hD3 (DRD3) (Homo sapiens, UniProt P35462). As to conditions: for % Stimulation of control agonist response, hD3: agonist effect at 100 µM.
Experiment [7] addresses T4, hD3 (DRD3). Kind of experiment: cell-based. As to conditions: for inhibition at 100 µM: read-out: % Inhibition of control agonist response, hD3.
Experiment [8] deals with T5, hMAO-A (Homo sapiens, UniProt P21397).
T5 sequence (P21397 1-527): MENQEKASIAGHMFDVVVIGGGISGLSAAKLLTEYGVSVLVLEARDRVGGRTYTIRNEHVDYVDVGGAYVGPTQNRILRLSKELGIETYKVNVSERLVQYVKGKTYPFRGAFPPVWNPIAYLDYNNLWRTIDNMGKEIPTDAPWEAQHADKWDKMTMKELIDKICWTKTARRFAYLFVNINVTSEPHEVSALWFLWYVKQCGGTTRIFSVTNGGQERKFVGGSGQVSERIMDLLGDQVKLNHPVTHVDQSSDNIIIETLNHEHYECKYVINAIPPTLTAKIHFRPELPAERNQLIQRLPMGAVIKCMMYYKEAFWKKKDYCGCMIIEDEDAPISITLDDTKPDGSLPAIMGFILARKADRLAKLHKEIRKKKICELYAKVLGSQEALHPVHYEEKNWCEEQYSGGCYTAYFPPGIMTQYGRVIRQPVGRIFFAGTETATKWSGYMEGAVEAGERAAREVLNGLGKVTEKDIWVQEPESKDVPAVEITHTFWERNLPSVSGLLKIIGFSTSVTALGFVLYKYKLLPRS
Description: hMAO-A inhibition, chemiluminescent MAO-Glo assay and kinetic analysis. It counts as biochemical.

Experiment [9] addresses T6, hMAO-B (Homo sapiens, UniProt P27338).
T6 sequence (P27338 1-520): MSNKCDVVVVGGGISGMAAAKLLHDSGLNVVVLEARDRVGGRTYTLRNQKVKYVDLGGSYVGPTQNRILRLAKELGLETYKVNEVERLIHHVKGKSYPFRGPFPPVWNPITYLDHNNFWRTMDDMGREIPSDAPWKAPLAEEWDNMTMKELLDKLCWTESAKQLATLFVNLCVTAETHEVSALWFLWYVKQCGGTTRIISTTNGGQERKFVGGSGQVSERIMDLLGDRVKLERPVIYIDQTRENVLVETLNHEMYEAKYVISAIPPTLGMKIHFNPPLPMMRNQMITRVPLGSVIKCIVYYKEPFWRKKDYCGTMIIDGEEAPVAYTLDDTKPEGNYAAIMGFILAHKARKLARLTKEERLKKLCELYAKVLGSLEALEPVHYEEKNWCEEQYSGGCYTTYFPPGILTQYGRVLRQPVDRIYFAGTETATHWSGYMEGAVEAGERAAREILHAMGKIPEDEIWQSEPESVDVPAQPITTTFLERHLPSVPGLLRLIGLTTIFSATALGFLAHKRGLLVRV
Description: hMAO-B inhibition, chemiluminescent MAO-Glo assay and kinetic analysis. Format: biochemical. The conditions noted are these: for IC50 / IC50 hMAO-B: recombinant hMAO-B, mean ± SD, n = 3.

The target of experiment [10] is hV1A (AVPR1A) (Homo sapiens, UniProt P37288). Kind of experiment: GPCR cell-based functional assay, intracellular Ca2+ level, V1A. The conditions noted are these: for % Stimulation of control agonist response, hV1A: agonist effect at 100 µM; for inhibition at 100 µM: antagonist effect at 100 µM, read-out: % Inhibition of control agonist response, hV1A.
Sequence of hV1A (AVPR1A) (P37288 whole entry): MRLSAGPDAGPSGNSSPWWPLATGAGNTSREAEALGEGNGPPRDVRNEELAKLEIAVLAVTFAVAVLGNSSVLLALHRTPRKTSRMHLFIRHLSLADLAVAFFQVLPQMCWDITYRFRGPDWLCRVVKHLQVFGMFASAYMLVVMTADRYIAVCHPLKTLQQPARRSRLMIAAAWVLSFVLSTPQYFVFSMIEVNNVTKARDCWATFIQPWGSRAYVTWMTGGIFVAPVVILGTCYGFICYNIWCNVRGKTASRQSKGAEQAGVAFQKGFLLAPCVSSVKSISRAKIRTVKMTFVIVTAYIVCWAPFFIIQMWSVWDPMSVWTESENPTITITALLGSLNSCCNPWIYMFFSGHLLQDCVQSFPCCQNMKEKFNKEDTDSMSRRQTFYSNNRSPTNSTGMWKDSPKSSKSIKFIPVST
Experiment [11] deals with T7, hD4 (DRD4) (Homo sapiens, UniProt P21917).
T7 sequence (P21917 1-419): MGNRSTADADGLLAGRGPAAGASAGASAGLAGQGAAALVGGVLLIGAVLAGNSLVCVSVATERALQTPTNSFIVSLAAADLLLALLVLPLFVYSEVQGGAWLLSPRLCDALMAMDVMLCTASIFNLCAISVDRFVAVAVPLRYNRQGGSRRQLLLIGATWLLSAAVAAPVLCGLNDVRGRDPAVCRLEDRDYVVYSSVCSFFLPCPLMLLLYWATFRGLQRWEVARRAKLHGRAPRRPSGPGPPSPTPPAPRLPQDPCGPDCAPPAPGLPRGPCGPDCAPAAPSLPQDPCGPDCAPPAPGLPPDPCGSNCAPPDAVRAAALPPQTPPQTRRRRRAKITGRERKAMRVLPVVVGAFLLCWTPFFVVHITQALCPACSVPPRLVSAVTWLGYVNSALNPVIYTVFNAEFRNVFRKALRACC
The conditions noted are these: for % Stimulation of control agonist response, hD4: agonist effect at 100 µM; for inhibition at 100 µM: read-out: % Inhibition of control agonist response, hD4.

Setting [12] is: concentration-dependent stimulation, mean ± SD.
[13] abbreviates: recombinant hMAO-A, mean ± SD, n = 3.
Setting [14] is: recombinant hMAO-A, mean ± SD, n = 3, read-out: IC50 hMAO-A.
The mark [15] stands for this setting: Kiu from secondary plot of 1/Vmaxapp versus concentration.
Setting [16] is: Lineweaver-Burk plots, NC = noncompetitive.

T4 sequence (P35462 whole entry): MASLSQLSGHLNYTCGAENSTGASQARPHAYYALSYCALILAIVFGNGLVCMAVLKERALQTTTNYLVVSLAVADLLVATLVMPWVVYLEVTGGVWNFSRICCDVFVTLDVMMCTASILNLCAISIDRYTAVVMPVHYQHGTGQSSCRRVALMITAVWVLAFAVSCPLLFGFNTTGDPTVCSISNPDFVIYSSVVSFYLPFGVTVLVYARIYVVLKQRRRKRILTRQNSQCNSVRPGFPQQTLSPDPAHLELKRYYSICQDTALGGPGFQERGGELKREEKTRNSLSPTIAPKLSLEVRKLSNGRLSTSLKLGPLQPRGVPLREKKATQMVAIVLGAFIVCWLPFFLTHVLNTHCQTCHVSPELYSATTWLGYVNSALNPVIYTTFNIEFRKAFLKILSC

On to `FC(F)(F)c1cc(CO[C@H]2CCCN[C@H]2c2ccccc2)cc(C(F)(F)F)c1` [L-733,060, reference compound], for which the IC50 in [1] (positive control, read-out: IC50 of standard antagonist, hNK1) was found to be 0.0016 µM.
As to `Oc1cc(O)cc(O)c1` [Phloroglucinol, phloroglucinol], in experiment [2], the “% Stimulation of control agonist response, hM5” value was −6.05 ± 0.78 ^B %. The inhibition at 100 µM is -21.6% in [2]; 4.95% in experiment [4]; -4.15% in [5]; -6.75% in experiment [7]; -8.05% in [1]; 13.9% in experiment [10]. Moreover, the inhibition at 100 µM in experiment [11] is -7.05%. Besides, the “% Stimulation of control agonist response, hD1” value in [3] is listed as 0.20 ± 3.82 ^A %. The “% Stimulation of control agonist response, h5-HT1A” value in [5] was 0.10 ± 0.28 ^B %. Moreover, the “% Stimulation of control agonist response, hD3” value in experiment [6] was −0.15 ± 14.07 ^C %. Also, in experiment [6] (setting [12]), the “EC50, dopamine D3 agonist effect” value is “No activity”. Moreover, the “% Stimulation of control agonist response, hNK1” value in experiment [1] was −0.85 ± 0.21 ^C %. For the same compound, the “IC50 hMAO-A” value in experiment [8] (setting [13]) is reported as “no inhibitory activity”. Moreover, the IC50 in experiment [8] (setting [14]) and in experiment [9] was above 900 µM throughout. Besides, in [9], the “IC50 hMAO-B” value was “no inhibitory activity”. For the same compound, the “% Stimulation of control agonist response, hV1A” value in experiment [10] is −0.80 ± 0.57 ^C %. Moreover, the “% Stimulation of control agonist response, hD4” value in experiment [11] is on record as −9.95 ± 14.50 ^C %. Also, in experiment [11] (setting [12]), the “EC50, dopamine D4 agonist effect” value is “No activity”.
Turning to `Oc1cc(O)c2oc3cc(O)c4oc5cc(O)cc(O)c5oc4c3oc2c1` [Dioxinodehydroeckol, dioxinodehydroeckol], the IC50 in experiment [8] was above 300 µM. Further, the “IC50 hMAO-A” value in [8] (setting [13]) is given as “no inhibitory activity”. For the same compound, in experiment [9], the IC50 is above 300 µM and the “IC50 hMAO-B” value was “no inhibitory activity”.
Consider `Oc1cc(O)cc(Oc2c(O)cc(O)c3c2Oc2c(O)cc4oc5c(Oc6cc(O)cc(O)c6)c(O)cc(O)c5c4c2O3)c1` [PFF-A, phlorofucofuroeckol-A], for which the “% Stimulation of control agonist response, hM5” value in experiment [2] was 29.20 ± 10.75 ^A %. The inhibition at 100 µM in experiment [2] was 56%; in experiment [4], 81.4%; in [5], 62.5%; in [7], -15.2%; in experiment [1] it was 88.2%; in experiment [10] it was 52.9%. Moreover, the inhibition at 100 µM in [11] was -26.1%. Further, the “% Stimulation of control agonist response, hD1” value in experiment [3] is 0.25 ± 3.18 ^A %. In addition, the “% Stimulation of control agonist response, h5-HT1A” value in [5] is 1.65 ± 0.49 ^A %. For the same compound, in [6], the “% Stimulation of control agonist response, hD3” value was 98.57 ± 2.14% and 98.57 ± 2.14 ^A %. For the same compound, the figures for the EC50 in experiment [7] and in experiment [11] were 19.2 ± 0.48 µM and 23.5 ± 1.55 µM, respectively. Further, the “% Stimulation of control agonist response, hNK1” value in experiment [1] is listed as 67.65 ± 9.26 ^A %. Further, the Ki came out at 5.18 µM in [8] (setting [15]) and 2.69 µM in experiment [9] (setting [15]). In experiment [8] (setting [16]), the “Inhibition type hMAO-A” value is on record as “noncompetitive”. Further, the “SI (selective index)” value in experiment [8] (ratio of hMAO-A IC50/hMAO-B IC50) turned out to be 1.89. Further, the IC50 in [8] (setting [14]) was 9.22 ± 0.19 µM; in experiment [9], 4.89 ± 0.32 µM. The “Inhibition type hMAO-B” value in experiment [9] (setting [16]) is on record as “noncompetitive”. Further, in experiment [10], the “% Stimulation of control agonist response, hV1A” value is given as 38.45 ± 7.14 ^B %. Moreover, the “% Stimulation of control agonist response, hD4” value in experiment [11] is 98.50 ± 12.50% and 98.50 ± 12.50 ^A %.
